In brackets after ≈: the same amount, converted by molar mass. Each block holds one compound with its values, some of them ahead of it.
Columns and labels:
Type in all cases: functional
Microsporum audouinii = assay: Antifungal activity against Microsporum audouinii
Candida albicans [1] = assay: Antifungal activity against Candida albicans
Aspergillus fumigatus [2] = assay: Antifungal activity against Aspergillus fumigatus assessed as reduction in fungal growth
Aspergillus niger [3] = assay: Antifungal activity against Aspergillus niger MTCC 282 assessed as reduction in microbial growth after 24 hrs by broth micro-dilution method
Rhizopus microsporus = assay: Antifungal activity against Rhizopus microsporus assessed as diameter of inhibition zone
Candida albicans [4] = assay: Antifungal activity against Candida albicans assessed as diameter of inhibition zone
Aspergillus niger [5] = assay: Antifungal activity against Aspergillus niger assessed as diameter of zone inhibition
Candida albicans [6] = assay: Antifungal activity against Candida albicans assessed as diameter of zone inhibition
Candida albicans [7] = assay: Antifungal activity against azole-resistant Candida albicans ATCC 18804 assessed as reduction in fungal growth by XTT assay
Geotrichum candidum = assay: Antifungal activity against Geotrichum candidum
[8] = system: Syncephalastrum racemosum; assay: Antifungal activity against Syncephalastrum racemosum
Candida albicans [9] = assay: Antifungal activity against Candida albicans SC5314 assessed as reduction in fungal growth incubated for 72 hrs by broth microdilution method
Candida albicans [10] = assay: Antifungal activity against Candida albicans ATCC 10231 assessed as inhibition of mycelial growth relative to control
Phomopsis = assay: Antifungal activity against Phomopsis assessed as reduction in fungal growth at 50 ug/ml relative to control
Botrytis cinerea = assay: Antifungal activity against Botrytis cinerea assessed as reduction in fungal growth at 50 ug/ml relative to control
Botryosphaeria dothidea = assay: Antifungal activity against Botryosphaeria dothidea assessed as reduction in fungal growth at 50 ug/ml relative to control
Aspergillus fumigatus [11] = assay: Antifungal activity against Aspergillus fumigatus assessed as reduction in fungal growth incubated for 72 hrs by agar well diffusion method
Candida albicans [12] = assay: Antifungal activity against Candida albicans ATCC 90028 assessed as growth inhibition incubated for 36 hrs by resazurin dye based assay
Candida albicans [13] = assay: Antifungal activity against azole-resistant Candida albicans ATCC 10231 assessed as fungal growth inhibition incubated for 24 hrs by CLSI protocol based broth microdilution method
Candida albicans [14] = assay: Antifungal activity against Candida albicans ATCC 90028 assessed as reduction in microbial growth
Candida tropicalis = assay: Antifungal activity against Candida tropicalis ATCC 750 assessed as reduction in microbial growth
Nakaseomyces glabratus = assay: Antifungal activity against Candida glabrata ATCC 90030 assessed as reduction in microbial growth
Candida albicans [15] = assay: Antifungal activity against Candida albicans assessed as zone of inhibition by disc diffusion method
Aspergillus flavus = assay: Antifungal activity against Aspergillus flavus assessed as zone of inhibition by disc diffusion method
Candida albicans [16] = assay: Antifungal activity against Candida albicans assessed as reduction in fungal growth incubated for 72 hrs by agar well diffusion method
Candida albicans [17] = assay: Antifungal activity against Candida albicans assessed as zone of inhibition
Aspergillus niger [18] = assay: Antifungal activity against Aspergillus niger assessed as zone of inhibition

Compound: COc1ccc(C2CC(=Nn3c(=O)cc[nH]c3=O)CC(c3ccc(OC)cc3)S2)cc1 (stereo unspecified)
MIC (Microsporum audouinii): 4 µg/mL (≈ 9.14 µM)
MIC (Candida albicans [1]): 0.25 µg/mL (≈ 0.571 µM)

Compound: O=C1CCC(=O)N(CC(=O)n2c3ccccc3c3ccccc32)N1
inhibition zone (IZ) (Rhizopus microsporus): 14 mm
inhibition zone (IZ) (Candida albicans [4]): 18 mm

Compound: Cc1cccc(-c2nc3ccccc3nc2N2CCN(C)CC2)c1
inhibition zone (IZ) (Aspergillus niger [5]): 16 mm
inhibition zone (IZ) (Candida albicans [6]): 14 mm

Compound: COc1ccc(/N=N/c2sc(-n3[nH]c(=O)ccc3=O)nc2C)cc1
MIC (Candida albicans [7]): 0.2 µg/mL (≈ 0.582 µM)

Compound: O=C(NNc1nc2ccccc2nc1/C=C/c1ccccc1O)Nc1cccc(Cl)c1
MIC (Candida albicans [9]): 0.125 µM (≈ 0.054 µg/mL)

Compound: O=C(Nc1ccccc1)c1nnn2c1[nH]c(=O)c1ccccc12
inhibition (INH) (Candida albicans [10]): 40%

Compound: Cc1nc(Oc2ccc(C(=O)Nc3ccc(OC(F)(F)F)c(Cl)c3)cc2)cc(C(F)(F)F)n1
inhibition at 50 µg/mL (Phomopsis): 92%
inhibition at 50 µg/mL (Botrytis cinerea): 98.5%
inhibition at 50 µg/mL (Botryosphaeria dothidea): 98.5%

Compound: Cc1n[nH]c2c(C#N)c(=O)n(-c3ccc(N)cc3)nc12
MIC (Aspergillus fumigatus [11]): 1.95 µg/mL (≈ 7.32 µM)

Compound: O=c1ccc(=O)n(-c2nc(-c3cc4ccccc4oc3=O)cs2)[nH]1
MIC (Candida albicans [13]): 5.6 µg/mL (≈ 16.5 µM)

Compound: CC(=O)N/C(=C\c1ccc(Cl)cc1)c1nc2c(=O)[nH]c(=O)n(Cc3ccccc3Cl)c2[nH]1
inhibition zone (IZ) (Candida albicans [15]): 12 mm
inhibition zone (IZ) (Aspergillus flavus): 10 mm

Compound: Cc1nnc2c(C#N)c(N)n(-c3ccc(N)cc3)nc1-2
MIC (Candida albicans [16]): 3.9 µg/mL (≈ 14.7 µM)
MIC (Aspergillus fumigatus [11]): 0.9 µg/mL (≈ 3.39 µM)

Compound: CC(=O)N(C(C)=O)N1C(=O)CC(=O)N(c2nnc(-c3cc([N+](=O)[O-])cc([N+](=O)[O-])c3)s2)C1=S
inhibition zone (IZ) (Candida albicans [17]): 23 mm
inhibition zone (IZ) (Aspergillus niger [18]): 21 mm

Compound: Cc1nc2c(sc3nc4c(nc32)c(C)nn4-c2ccccc2)c(=O)o1
MIC (Candida albicans [1]): 3 µg/mL (≈ 8.59 µM)
MIC (Geotrichum candidum): 4 µg/mL (≈ 11.4 µM)
MIC [8]: 3 µg/mL (≈ 8.59 µM)

Compound: C=CCNN1CCN(c2nc3ccccc3nc2-c2cccc(C)c2)CC1
inhibition zone (IZ) (Aspergillus niger [5]): 14 mm
inhibition zone (IZ) (Candida albicans [6]): 13 mm

Compound: C/C=C/N1CCN(c2nc3ccccc3nc2-c2cccc(C)c2)CC1
inhibition zone (IZ) (Aspergillus niger [5]): 15 mm
inhibition zone (IZ) (Candida albicans [6]): 14 mm

Results, then the compound that gave them:

MIC (Aspergillus fumigatus [2]): < 214 µg/mL
Compound: O=C1N/C(=N/c2nn(-c3ccccc3)nc2C(=O)Nc2cnccn2)S/C1=C\c1ccccc1

MIC (Aspergillus niger [3]): 44 µM
Compound: Clc1cnc(C2=Nc3ccccc3SC(c3cccs3)C2)cn1 (stereo unspecified)

MIC (Candida albicans [1]): 5 µg/mL (≈ 11.3 µM)
MIC (Geotrichum candidum): 4 µg/mL (≈ 9.02 µM)
MIC [8]: 5 µg/mL (≈ 11.3 µM)
Compound: Cc1nn(-c2ccccc2)c2nc3sc(C(=O)OCC(=O)c4ccccc4)c(N)c3nc12

MIC (Aspergillus niger [3]): 19 µM
Compound: Clc1ccc(C2CC(c3cnc(Cl)cn3)=Nc3ccccc3S2)c(Cl)c1 (stereo unspecified)

MIC (Candida albicans [1]): 5 µg/mL (≈ 14.1 µM)
MIC (Geotrichum candidum): 5 µg/mL (≈ 14.1 µM)
MIC [8]: 5 µg/mL (≈ 14.1 µM)
Compound: CCOC(=O)c1sc2nc3c(nc2c1N)c(C)nn3-c1ccccc1

MIC (Candida albicans [12]): 6.25 µg/mL (≈ 18 µM)
Compound: O=C(Nc1ccc(F)c(F)c1)N1CCn2c(nnc2C(F)(F)F)C1

MIC (Candida albicans [14]): 750 µg/mL
MIC (Candida tropicalis): > 1000 µg/mL
MIC (Nakaseomyces glabratus): > 1000 µg/mL
Compound: C[C@]12CC[C@H](O)CC1=CC[C@@H]1[C@@H]2CC[C@]2(C)C3=C(C[C@@H]12)C(c1ccccc1)N1C=CSC1=N3 (stereo partly specified)

MIC (Candida albicans [12]): 6.25 µg/mL (≈ 15.4 µM)
Compound: FC(F)(F)c1nnc2n1CCN(C(=S)Nc1ccc(Br)cc1)C2

Source: ChEMBL document CHEMBL6103565, “Current strategies in design and synthesis of antifungals hybrid and chimeric diazine derivatives” (Bioorg Med Chem, 2025)
